Source: paper PMC5821946, “Immunomodulatory Effects of Diterpene Quinone Derivatives from the Roots of Horminum pyrenaicum in Human PBMC” (Oxidative Medicine and Cellular Longevity, 2018)
pIC50: −log10 of the molar value.

Columns and labels:
[1] = system: neopterin formation by GTP-cyclohydrolase 1 (GTP-CH-I) in PBMC; test: Neopterin formation in PBMC supernatants (ELISA) after 48 h treatment; assay type: cell-based, human; conditions: PHA-stimulated PBMC; data not shown; insufficient repetitions for (1) and (3)
Experimental: The study was performed in accordance with the Declaration of Helsinki. PBMC were isolated from healthy donors who gave written consent that their donated blood may be used for scientific purposes, in case when it was not selected for transfusion. The PBMC were isolated by density gradient centrifugation as described earlier. After isolation, the cells were washed three times with phosphate buffered saline containing 1 μM ethylenediaminetetraacetic acid and subsequently they were maintained in RPMI 1640 (Sigma Aldrich, Vienna, Austria) supplemented with 2 mM L-glutamine, 10% heat-inactivated fetal calf serum (Biochrom, Germany) and 50 μg/mL gentamicin (Lonza-BioWhittaker, USA), at 37°C in a humidified atmosphere containing 5% CO2.
(§1) The cells were seeded in 48-well plates (1.5 × 10^6 cells/mL/well) and treated either with increasing concentrations of the extract, the individual fractions or the pure compounds, dissolved in DMSO. The PBMC were either stimulated with 10 μg/mL of the mitogen lectin phytohaemagglutin (PHA) after 30 minutes of treatment, or were left unstimulated. In addition to PHA, the stimulatability of the PBMC was controlled for each experiment by treatment with the lectin concanavalin A (ConA) at a concentration of 10 μg/mL. After 48 h of incubation, cell culture supernatants were collected and stored at −20°C until analysis. In addition, 1-methyl-D-tryptophan (Sigma-Aldrich, Vienna, Austria) was used as a postive control for the suppression of IDO-1 acitivity.
Neopterin concentrations were measured by ELISA (BRAHMS, Germany), according to the manufacturers' instructions with the detection limit of 2 nmol/L.
The half maximal (50% inhibitory) concentration (IC50) was calculated by using the CalcuSyn software (Biosoft, UK) according the concept of Chou and Talalay. […] P-values below 0.05 were considered to indicate significance. Results are expressed as percent of unstimulated and PHA-stimulated control cells and are shown as mean ± standard error of the mean (SEM).

[2] = molecular target: T1, indoleamine 2,3-dioxygenase-1 (IDO-1) (Homo sapiens, UniProt P14902); test: Tryptophan breakdown to kynurenine (Kyn/Trp by HPLC) in PBMC supernatants after 48 h treatment; assay type: cell-based
T1 construct: PBMC were isolated from healthy donors who gave written consent that their donated blood may be used for scientific purposes; endogenous in cells; host or cells: primary human PBMC from healthy blood donors, stimulated with 10 μg/mL PHA
T1 sequence (P14902 whole entry): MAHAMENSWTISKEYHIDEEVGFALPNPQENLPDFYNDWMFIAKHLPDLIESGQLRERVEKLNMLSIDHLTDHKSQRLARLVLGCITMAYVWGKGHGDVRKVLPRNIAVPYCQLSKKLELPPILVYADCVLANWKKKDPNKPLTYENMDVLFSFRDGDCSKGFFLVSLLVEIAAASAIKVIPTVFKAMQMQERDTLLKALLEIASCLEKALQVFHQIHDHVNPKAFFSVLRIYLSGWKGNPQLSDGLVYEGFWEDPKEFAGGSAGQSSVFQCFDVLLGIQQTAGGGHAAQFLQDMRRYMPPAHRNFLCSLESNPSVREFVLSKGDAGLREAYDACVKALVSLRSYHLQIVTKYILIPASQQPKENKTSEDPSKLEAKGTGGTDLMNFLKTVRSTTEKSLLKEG
Experimental: The study was performed in accordance with the Declaration of Helsinki. PBMC were isolated from healthy donors who gave written consent that their donated blood may be used for scientific purposes, in case when it was not selected for transfusion. The PBMC were isolated by density gradient centrifugation as described earlier.
as §1, with “The” for “The cells were seeded in 48-well plates (1.5 × 10^6 cells/mL/well) and treated either with increasing concentrations of the extract, the individual fractions or the pure compounds, dissolved in DMSO. The”
Briefly, the HPLC analysis of tryptophan and kynurenine was performed on a ProStar Varian system (USA) using rp-18 columns (Merck, Germany) and acetate buffer as eluent (flow-rate: 0.9 mL/min) according to the protocol described earlier. 3-Nitro-L-tyrosine (Sigma Aldrich, Austria) was used as an internal standard. Kynurenine and tryptophan standards were purchased from Sigma-Aldrich (Austria). Kynurenine and 3-nitro-L-tyrosine were detected by UV-absorbance at 360 nm wavelength (Shimadzu SPD-6A UV detector, Austria), tryptophan was detected by its fluorescence with an excitation wavelength of 286 nm and an emission wavelength of 366 nm (ProStar 360 detector, Varian, USA). The Kyn/Trp was calculated, which is an estimate of IDO-1 activity and expressed in μmol Kyn / mmol Trp. The sensitivity of the measurements was 0.5 μmol/L kynurenine and 0.1 μmol/L tryptophan.
P-values below 0.05 were considered to indicate significance. Results are expressed as percent of unstimulated and PHA-stimulated control cells and are shown as mean ± standard error of the mean (SEM).

SMILES | Inhibition of neopterin formation (in words) [1] | pIC50 [2]
CC(C)C1=C(O)C(=O)C2=C(C1=O)[C@H](O)C[C@H]1C(C)(C)CCC[C@]21C [compound 1, horminone] | inhibition of neopterin formation | 3.46
CC(=O)O[C@@H]1C[C@H]2C(C)(C)CCC[C@]2(C)C2=C1C(=O)C(C(C)C)=C(O)C2=O [compound 2, 7-O-acetylhorminone] | inhibition of neopterin formation | 4.14
COC1=C(C(C)C)C(=O)c2c(O)cc3c(c2C1=O)C=CC(=O)C3(C)C [compound 3, agastaquinone] | no dose-dependent effect | 4.33
COc1c(O)c2c(c(O)c1C(C)C)C(=O)C[C@H]1C(C)(C)CCC[C@]21C [compound 6, inuroyleanol] | no dose-dependent effect | –
C=C1[C@@H](C)CC[C@]2(C)c3c(O)c(OC)c(C(C)C)c(O)c3C(=O)C[C@@H]12 [compound 7, agastol] | minor | 3.78
COC1=C(C(C)C)C(=O)c2c(O)cc3c(c2C1=O)C=CCC3(C)C [compound 8, 3-deoxyagastaquinone] | inhibition of neopterin formation | 4.10
